# Assay results reported in ChEMBL document CHEMBL1201862, “PubChem BioAssay data set” (2004).
#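 In this assay, cells in 96-well plates receive the compound at five concentrations for 48 hours. Endpoints are linearly interpolated between the surrounding concentrations. Here, GI50 denotes the concentration required for 50% inhibition of growth.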 Activity calls are given as the source filed them. No stated cut-off is given here; in the data, active = GI50 up to about 1.1 µM and inactive = higher.
# Tests used:
# Assay in all cases: NCI anticancer screen, dose series, 48 h
# 786-0 = test system: 786-0
# A498 = test system: A498
# A549 = test system: A549
# ACHN = test system: ACHN
# CAKI-1 = test system: CAKI-1
# CCRF-CEM = test system: CCRF-CEM
# COLO 205 = test system: COLO 205
# DLD-1 = test system: DLD-1
# DMS-114 = test system: DMS-114
# DMS-273 = test system: DMS-273
# EKVX = test system: EKVX
# HCC 2998 = test system: HCC 2998
# HCT-116 = test system: HCT-116
# HCT-15 = test system: HCT-15
# HL-60 = test system: HL-60
# HOP-18 = test system: HOP-18
# HOP-62 = test system: HOP-62
# HT-29 = test system: HT-29
# IGROV-1 = test system: IGROV-1
# K562 = test system: K562
# KM-20L2 = test system: KM-20L2
# KM12 = test system: KM12
# LOX IMVI = test system: LOX IMVI
# LXFL 529 = test system: LXFL 529
# M14 = test system: M14
# M19-MEL = test system: M19-MEL
# MOLT-4 = test system: MOLT-4
# Malme-3M = test system: Malme-3M
# NCI-H226 = test system: NCI-H226
# NCI-H23 = test system: NCI-H23
# NCI-H460 = test system: NCI-H460
# NCI-H522 = test system: NCI-H522
# OVCAR-3 = test system: OVCAR-3
# OVCAR-4 = test system: OVCAR-4
# OVCAR-5 = test system: OVCAR-5
# OVCAR-8 = test system: OVCAR-8
# RPMI-8226 = test system: RPMI-8226
# RXF 393 = test system: RXF 393
# SF-268 = test system: SF-268
# SF-295 = test system: SF-295
# SF-539 = test system: SF-539
# SK-MEL-28 = test system: SK-MEL-28
# SK-MEL-2 = test system: SK-MEL-2
# SK-MEL-5 = test system: SK-MEL-5
# SK-OV-3 = test system: SK-OV-3
# SN12C = test system: SN12C
# SNB-19 = test system: SNB-19
# SNB-75 = test system: SNB-75
# SNB-78 = test system: SNB-78
# SR = test system: SR
# SW-620 = test system: SW-620
# TK-10 = test system: TK-10
# U-251 = test system: U-251
# UACC-257 = test system: UACC-257
# UACC-62 = test system: UACC-62
# UO-31 = test system: UO-31
# XF498 = test system: XF498
# HOP-92 = test system: HOP-92
# RXF 631 = test system: RXF 631
structure (smiles),measurement,setting,value
O=C(/C=C/C1C(=O)NC(=O)NC1=O)CC(=O)C(=O)Nc1cc(Cl)c(Cl)cc1Cl,GI50,786-0,> 100 µM (inactive)
same,GI50,A498,> 100 µM (inactive)
same,GI50,A549,> 100 µM (inactive)
same,GI50,ACHN,> 100 µM (inactive)
same,GI50,CAKI-1,> 100 µM (inactive)
same,GI50,CCRF-CEM,> 100 µM (inactive)
same,GI50,COLO 205,> 100 µM (inactive)
same,GI50,DLD-1,> 100 µM (inactive)
same,GI50,DMS-114,> 100 µM (inactive)
same,GI50,DMS-273,> 100 µM (inactive)
same,GI50,EKVX,> 100 µM (inactive)
same,GI50,HCC 2998,> 100 µM (inactive)
same,GI50,HCT-116,> 100 µM (inactive)
same,GI50,HCT-15,> 100 µM
same,GI50,HL-60,> 100 µM (inactive)
same,GI50,HOP-18,> 100 µM (inactive)
same,GI50,HOP-62,> 100 µM (inactive)
same,GI50,HT-29,> 100 µM (inactive)
same,GI50,IGROV-1,> 100 µM (inactive)
same,GI50,K562,> 100 µM (inactive)
same,GI50,KM-20L2,> 100 µM (inactive)
same,GI50,KM12,> 100 µM (inactive)
same,GI50,LOX IMVI,> 100 µM (inactive)
same,GI50,LXFL 529,> 100 µM (inactive)
same,GI50,M14,> 100 µM (inactive)
same,GI50,M19-MEL,> 100 µM (inactive)
same,GI50,MOLT-4,> 100 µM (inactive)
same,GI50,Malme-3M,> 100 µM (inactive)
same,GI50,NCI-H226,> 100 µM (inactive)
same,GI50,NCI-H23,> 100 µM (inactive)
same,GI50,NCI-H460,> 100 µM (inactive)
same,GI50,NCI-H522,> 100 µM (inactive)
same,GI50,OVCAR-3,> 100 µM (inactive)
same,GI50,OVCAR-4,> 100 µM (inactive)
same,GI50,OVCAR-5,> 100 µM (inactive)
same,GI50,OVCAR-8,> 100 µM (inactive)
same,GI50,RPMI-8226,> 100 µM (inactive)
same,GI50,RXF 393,> 100 µM (inactive)
same,GI50,SF-268,> 100 µM (inactive)
same,GI50,SF-295,> 100 µM (inactive)
same,GI50,SF-539,> 100 µM (inactive)
same,GI50,SK-MEL-28,> 100 µM (inactive)
same,GI50,SK-MEL-2,> 100 µM (inactive)
same,GI50,SK-MEL-5,> 100 µM (inactive)
same,GI50,SK-OV-3,> 100 µM (inactive)
same,GI50,SN12C,> 100 µM (inactive)
same,GI50,SNB-19,> 100 µM (inactive)
same,GI50,SNB-75,> 100 µM (inactive)
same,GI50,SNB-78,> 100 µM (inactive)
same,GI50,SR,> 100 µM (inactive)
same,GI50,SW-620,> 100 µM (inactive)
same,GI50,TK-10,> 100 µM (inactive)
same,GI50,U-251,> 100 µM (inactive)
same,GI50,UACC-257,> 100 µM (inactive)
same,GI50,UACC-62,> 100 µM (inactive)
same,GI50,UO-31,> 100 µM (inactive)
same,GI50,XF498,> 100 µM (inactive)
OCC1O[C@H](O[C@@H]2CCCN3CC(O)C(O)[C@@H]23)C(O)C(O)C1O (stereo partly drawn),GI50,A498,> 100 µM (inactive)
same,GI50,A549,> 100 µM (inactive)
same,GI50,ACHN,> 100 µM (inactive)
same,GI50,CAKI-1,> 100 µM (inactive)
same,GI50,CCRF-CEM,> 100 µM (inactive)
same,GI50,COLO 205,> 100 µM (inactive)
same,GI50,DLD-1,> 100 µM (inactive)
same,GI50,DMS-273,> 100 µM (inactive)
same,GI50,EKVX,> 100 µM (inactive)
same,GI50,HCC 2998,> 100 µM (inactive)
same,GI50,HCT-116,> 100 µM (inactive)
same,GI50,HCT-15,> 100 µM
same,GI50,HL-60,> 100 µM (inactive)
same,GI50,HOP-18,> 100 µM (inactive)
same,GI50,HOP-62,> 100 µM (inactive)
same,GI50,HOP-92,> 100 µM (inactive)
same,GI50,HT-29,> 100 µM (inactive)
same,GI50,IGROV-1,> 100 µM (inactive)
same,GI50,K562,> 100 µM (inactive)
same,GI50,KM-20L2,> 100 µM (inactive)
same,GI50,KM12,> 100 µM (inactive)
same,GI50,LXFL 529,> 100 µM (inactive)
same,GI50,M14,> 100 µM (inactive)
same,GI50,M19-MEL,> 100 µM (inactive)
same,GI50,MOLT-4,> 100 µM (inactive)
same,GI50,Malme-3M,> 100 µM (inactive)
same,GI50,NCI-H226,> 100 µM (inactive)
same,GI50,NCI-H23,> 100 µM (inactive)
same,GI50,NCI-H522,> 100 µM (inactive)
same,GI50,OVCAR-3,> 100 µM (inactive)
same,GI50,OVCAR-4,> 100 µM (inactive)
same,GI50,OVCAR-5,> 100 µM (inactive)
same,GI50,OVCAR-8,> 100 µM (inactive)
same,GI50,RXF 631,> 100 µM (inactive)
same,GI50,SF-268,> 100 µM (inactive)
same,GI50,SF-295,> 100 µM (inactive)
same,GI50,SF-539,> 100 µM (inactive)
same,GI50,SK-MEL-28,> 100 µM (inactive)
same,GI50,SK-MEL-2,> 100 µM (inactive)
same,GI50,SK-MEL-5,> 100 µM (inactive)
same,GI50,SK-OV-3,> 100 µM (inactive)
same,GI50,SN12C,> 100 µM (inactive)
same,GI50,SNB-75,> 100 µM (inactive)
same,GI50,SNB-78,> 100 µM (inactive)
same,GI50,SR,> 100 µM (inactive)
same,GI50,SW-620,> 100 µM (inactive)
same,GI50,TK-10,> 100 µM (inactive)
same,GI50,U-251,> 100 µM (inactive)
same,GI50,UACC-257,> 100 µM (inactive)
same,GI50,UACC-62,> 100 µM (inactive)
same,GI50,UO-31,> 100 µM (inactive)
